A word on the pKa: it is the pH at which an ionisable group is half protonated. High values mean a group that holds its proton tightly, low ones a group that gives up its proton readily.

Data set [1] relates to human IgG in mouse serum. The experiment in a line: Immunoglobulin G (IgG) mRNA in vivo evaluation using lipid nanoparticle compositions (human IgG ELISA). As to conditions: tail vein injection, μg IgG/mL serum 24 hours after administration; for Serum IgG @ 0.3 mg/kg: 0.3 mg mRNA/kg; for Serum IgG @ 1.0 mg/kg: 1.0 mg mRNA/kg. Also noted: species or system mice. How it is done: A lipid of structure (I), DSPC, cholesterol and PEG-lipid are solubilized in ethanol at a molar ratio of 50:10:38.5:1.5 or 47.5:10:40.7:1.8. Lipid nanoparticles (LNP) are prepared at a total lipid to mRNA weight ratio of approximately 10:1 to 40:1. Briefly, the mRNA is diluted to 0.2 mg/mL in 10 to 50 mM citrate buffer, pH 4 or 10 to 25 mM acetate buffer, pH 4. Syringe pumps are used to mix the ethanolic lipid solution with the mRNA aqueous solution at a ratio of about 1:5 to 1:3 (vol/vol) with total flow rates above 15 mL/min. The ethanol is then removed, and the external buffer replaced with PBS by dialysis. Finally, the lipid nanoparticles are filtered through a 0.2 µm pore sterile filter.
Studies are performed in 6-8-week-old CD-1/ICR mice (Envigo) according to guidelines established by an institutional animal care committee (ACC) and the Canadian Council on Animal Care (CCAC). Varying doses of mRNA-lipid nanoparticle are systemically administered by tail vein injection and animals euthanized at a specific time point (e.g., 24 hours) post-administration. The whole blood is collected, and the serum subsequentially separated by centrifuging the tubes of the whole blood at 2000×g for 10 minutes at 4° C. and stored at −80° C. until use for analysis.
For immunoglobulin G (IgG) ELISA (Life Diagnostics Human IgG ELISA kit), the serum samples are diluted at 100 to 15000 folds with 1× diluent solution. 100 μL of diluted serum is dispensed into anti-human IgG coated 96-well plate in duplicate alongside human IgG standards and incubated in a plate shaker at 150 rpm at 25° C. for 45 minutes. The wells are washed 5 times with 1× wash solution using a plate washer (400 μL/well). 100 μL of HRP conjugate is added into each well and incubated in a plate shaker at the same condition above. The wells are washed 5 times again with 1× wash solution using a plate washer (400 μL/well). 100 μL of TMB reagent is added into each well and incubated in a plate shaker at the same condition above. The reaction is stopped by adding 100 μL of Stop solution to each well. The absorbance is read at 450 nm (A450) with a microplate reader. The amount of human IgG in mouse serum is determined by plotting A450 values for the assay standard against human IgG concentration.
Representative compounds of the disclosure shown in Table 2 were formulated using the following molar ratio: 50% cationic lipid/10% distearoylphosphatidylcholine (DSPC)/38.5% Cholesterol/1.5% PEG lipid 2-[2-(ω-methoxy(polyethyleneglycol2000)ethoxy]-N,N-ditetradecylacetamide) or 47.5% cationic lipid/10% DSPC/40.7% Cholesterol/1.8% PEG lipid. Activity was determined by measuring luciferase expression in the liver 4 hours following administration via tail vein injection as described in Example 1 or by measuring the amount of human IgG in mouse serum as described in Example 2. The activity was compared at a dose of 1.0 or 0.5 or 0.3 mg mRNA/kg and expressed as ng luciferase/g liver measured 4 hours after administration, as described in Example 1 or as μg IgG/mL serum measured 24 hours after administration, as described in Example 2. Compound numbers in Table 2 refer to the compound numbers of Table 1.
In general terms: An ELISA detects its analyte on a solid surface through an enzyme-linked reagent.

A short description of data set [2]: Determination of pKa of formulated lipids (TNS fluorescence assay in lipid nanoparticles). Format: physicochemical. As to conditions: lipid nanoparticles (compound/DSPC/cholesterol/PEG-lipid), lipid formulated in LNP (cationic lipid/DSPC/cholesterol/PEG-lipid), pH of half-maximal fluorescence. The protocol:
As described elsewhere, the pKa of formulated lipids is correlated with the effectiveness of LNPs for delivery of nucleic acids (see Jayaraman et al, Angewandte Chemie, International Edition (2012), 51(34), 8529-8533; Semple et al, Nature Biotechnology 28, 172-176 (2010)). In some embodiments, the preferred range of pKa is ˜5 to ˜7. The pKa of each lipid is determined in lipid nanoparticles using an assay based on fluorescence of 2-(p-toluidino)-6-napthalene sulfonic acid (TNS). Lipid nanoparticles comprising compound of structure (I)/DSPC/cholesterol/PEG-lipid (50/10/38.5/1.5 or 47.5:10:40.7:1.8 mol %) in PBS at a concentration of 0.4 mM total lipid are prepared using the in-line process as described in Example 1. TNS is prepared as a 100 μM stock solution in distilled water. Vesicles are diluted to 24 μM lipid in 2 mL of buffered solutions containing 10 mM HEPES, 10 mM MES, 10 mM ammonium acetate, and 130 mM NaCl, where the pH ranged from 2.5 to 11. An aliquot of the TNS solution is added to give a final concentration of 1 μM and following vortex mixing fluorescence intensity is measured at room temperature in a SLM Aminco Series 2 Luminescence Spectrophotometer using excitation and emission wavelengths of 321 nm and 445 nm. A sigmoidal best fit analysis is applied to the fluorescence data and the pKa is measured as the pH giving rise to half-maximal fluorescence intensity.

For `CCCCCCCCC(CCCCCC)COC(=O)CCCCCN(CCCCCC(=O)OCC(CCCCCC)CCCCCCCC)CCCN(C)CCCCC(=O)N(CCCCCC)CCCCCC` (stereo not drawn) [Compound I-49, Bis(2-hexyldecyl) 6,6′-((3-((5-(dihexylamino)-5-oxopentyl)(methyl)amino)propyl)azanediyl)dihexanoate], in data set [1], the “Serum IgG @ 0.3 mg/kg” value worked out at 42.4 ± 11.7 µg/mL and the “Serum IgG @ 1.0 mg/kg” value was determined as 120.6 ± 31.7 µg/mL. In data set [2], this compound returned a pKa of 6.34.
For `CCCCCCCCC(CCCCCC)COC(=O)CCCCCN(CCCCCC(=O)OCC(CCCCCC)CCCCCCCC)CCCN(C)CCCCC(=O)OC` (stereo not drawn) [Compound I-50, Bis(2-hexyldecyl) 6,6′-((3-((5-methoxy-5-oxopentyl)(methyl)amino)propyl)azanediyl)dihexanoate] the same measures were 15.4 ± 2.6 µg/mL, 91.5 ± 19.7 µg/mL and 6.46.
On to `CCCCCCCCC(CCCCCC)C(=O)OCCCCCCN(CCCCCCOC(=O)C(CCCCCC)CCCCCCCC)CCCCN(C)CCCCC(=O)N(CCCCCCCC)CCCCCCCC` (stereo not drawn) [Compound I-51, ((4-((5-(dioctylamino)-5-oxopentyl)(methyl)amino)butyl)azanediyl)bis(hexane-6,1-diyl)bis(2-hexyldecanoate)], for which, in data set [1], the “Serum IgG @ 0.3 mg/kg” value was 31.9 ± 6.5 µg/mL and the “Serum IgG @ 1.0 mg/kg” value was 131.5 ± 18.1 µg/mL. The pKa in data set [2] stood at 6.4.
`CCCCCCCCC(CCCCCC)C(=O)OCCCCCCN(CCCCCCOC(=O)C(CCCCCC)CCCCCCCC)CCN(C)CCCC(=O)N(CC)CC` (stereo not drawn) [Compound I-52, 6-((2-((3-(N,N-diethylcarbamoyl)propyl)-n-methylamino)ethyl)(6-(1-hexylnonylcarbonyloxy)hexyl)amino)hexyl 2-hexyldecanoate]: in data set [1], the “Serum IgG @ 0.3 mg/kg” value amounted to 6.4 ± 2.6 µg/mL and the “Serum IgG @ 1.0 mg/kg” value turned out to be 35.4 ± 11.1 µg/mL. Further, the pKa in data set [2] is 6.71.

For the origin of these results see US20240270679A1, “LIPIDS FOR USE IN LIPID NANOPARTICLE FORMULATIONS” (Acuitas Therapeutics, Inc., priority 2022, published 2024).
